Tests used:
Glutamate, Kainate = experiment: Radioligand binding assay No. 232700; settings: test substance 10 μM; rat
Histamine H2 = Histamine H2 (Homo sapiens (Human), UniProt P25021); experiment: Radioligand binding assay No. 239710; settings: test substance 10 μM, read-out: Inhibitory rate (%), Histamine H2
Melatonin MT1 = Melatonin MT1 (Homo sapiens (Human), UniProt P48039); experiment: Radioligand binding assay No. 251600; settings: test substance 10 μM, read-out: Inhibitory rate (%), Melatonin MT1
Potassium Channel hERG = Potassium Channel hERG (Homo sapiens (Human), UniProt Q12809); experiment: Radioligand binding assay No. 265900; settings: test substance 10 μM, read-out: Inhibitory rate (%), Potassium Channel hERG
[1] = In vivo pharmacokinetics assay in rat; settings: male, SD, plasma, rats; for Vd: read-out: Vss; for bioavailability: P.O 4 mg/kg vs I.V 2 mg/kg, read-out: F % (absolute bioavailability)
Excerpt: Test animals: male SD rats, weighing 190-260 g. Intravenous bolus injection (I.V.) and gavage (P.O.) administrations were each applied to three rats.
Compound 5, for both I.V and P.O administrations, was solubilized with a solution of 30% DMF+50% PEG400+20%(0.9% sodium chloride injection)(the pH being adjusted with a suitable amount of an aqueous hydrochloric acid solution (2 mol/L)).
Compound 6, for both I.V and P.O administrations, was solubilized with a solution of 30% DMF+30% PEG400+5%0.1 mol/lhydrochloric acid+[…] normal saline.
Compound 30 for I.V administration was solubilized with a solution of 30% DMF+50% PEG400+20% normal saline; Compound 30 for P.O administration was solubilized with a solution of 5% DMSO+30% polyoxyethylene castor oil+65% normal saline.
Compound 30 hydrochloride for I.V administration was solubilized with a solution of 30% DMF+50% PEG400+20% sterile water for injection.
I.V blood sampling time point: 0.083 h, 0.25 h, 0.5 h, 1 h, 2 h, 4 h, 6 h, 8 h and 24 h after the administration, P.O blood sampling time point: 0.17 h, 0.5 h, 1 h, 2 h, 4 h, 6 h, 8 h and 24 h after the administration.
About 100 μl of whole blood was taken at each time point, anticoagulated with heparin sodium, and centrifugated at 8,000 rpm in a high-speed centrifuge for 6 minutes to separate plasma, and the resulting plasma was frozen at −80° C. in a refrigerator.
The plasma sample was treated with a liquid-liquid extraction. 20 μL of plasma was taken. A solution of BEZ-235 (Novartis, Phase II) in tertbutylmethylether (600 μL, 10 ng/mL) was added as internal standard. The mixture was rotated vertically at 1500 rpm for 10 mins and then centrifugated at 12000 rpm for 5 mins. 400 μL of the supernate was taken and dried under nitrogen. The dried substance was redissolved in 200 μL methanol:water (7:3, V/V) for LC-MS/MS analysis.
Calculation Absolute bioavailability F%=[AUC]last (P.O)*Dose(I.V)/[AUC]last (I.V)*Dose(P.O)

U87MG = experiment: In vitro cytological inhibitory activity (XTT); format: cell-based; settings: Homo sapiens, U-87 MG, 72 hrs
Experimental: U87MG: Human brain astrocytoblast cell line;
1. Preparation of agents and compounds:
• 1.1 Preparation of phosphoric acid buffering solution (PBS): 8 g NaCl, 0.2 g KCl, 1.44 g Na2HPO4 and 0.24 g KH2PO4 were weighed and added to 800 mL ultrapure water. The mixture was adjusted to pH=7.4, and ultrapure water was added to the metered volume of IL. Then the autoclaving was conducted for 20 mins. • 1.2 Preparation of XTT detection working solution: 100 mg (2,3-Bis-(2-methoxy-4-nitro-5-sulfophenyl)-2H-tetrazolium-5-carboxanilide); 2,3-bis(2-methoxy-4-nitro-5-sulfophenyl)-5-[(phenylamino)carbonyl]-2H-tetrazolium hydroxide (XTT) powder was weighed, and dissolved under protection from light 300 mL of phenol red-free and serum-free RPMI1640 culture, which had been warmed up to 50° C. The resulting mixture was filtered, packaged and used immediately or in one week. The complete process was conducted under protection from light. • 1.3 Preparation of the test compound • Preparation of the stock solution of the test compound: The test compound powder was dissolved in DMSO in a concentration of 10 mM. • Preparation of the gradiently diluted solution of the test compound: 10 mM of the stock solution of the test compound was successively and gradiently diluted with DMSO by 4 folds for 10 concentrations. […]

Sequence of Potassium Channel hERG (Q12809 whole entry): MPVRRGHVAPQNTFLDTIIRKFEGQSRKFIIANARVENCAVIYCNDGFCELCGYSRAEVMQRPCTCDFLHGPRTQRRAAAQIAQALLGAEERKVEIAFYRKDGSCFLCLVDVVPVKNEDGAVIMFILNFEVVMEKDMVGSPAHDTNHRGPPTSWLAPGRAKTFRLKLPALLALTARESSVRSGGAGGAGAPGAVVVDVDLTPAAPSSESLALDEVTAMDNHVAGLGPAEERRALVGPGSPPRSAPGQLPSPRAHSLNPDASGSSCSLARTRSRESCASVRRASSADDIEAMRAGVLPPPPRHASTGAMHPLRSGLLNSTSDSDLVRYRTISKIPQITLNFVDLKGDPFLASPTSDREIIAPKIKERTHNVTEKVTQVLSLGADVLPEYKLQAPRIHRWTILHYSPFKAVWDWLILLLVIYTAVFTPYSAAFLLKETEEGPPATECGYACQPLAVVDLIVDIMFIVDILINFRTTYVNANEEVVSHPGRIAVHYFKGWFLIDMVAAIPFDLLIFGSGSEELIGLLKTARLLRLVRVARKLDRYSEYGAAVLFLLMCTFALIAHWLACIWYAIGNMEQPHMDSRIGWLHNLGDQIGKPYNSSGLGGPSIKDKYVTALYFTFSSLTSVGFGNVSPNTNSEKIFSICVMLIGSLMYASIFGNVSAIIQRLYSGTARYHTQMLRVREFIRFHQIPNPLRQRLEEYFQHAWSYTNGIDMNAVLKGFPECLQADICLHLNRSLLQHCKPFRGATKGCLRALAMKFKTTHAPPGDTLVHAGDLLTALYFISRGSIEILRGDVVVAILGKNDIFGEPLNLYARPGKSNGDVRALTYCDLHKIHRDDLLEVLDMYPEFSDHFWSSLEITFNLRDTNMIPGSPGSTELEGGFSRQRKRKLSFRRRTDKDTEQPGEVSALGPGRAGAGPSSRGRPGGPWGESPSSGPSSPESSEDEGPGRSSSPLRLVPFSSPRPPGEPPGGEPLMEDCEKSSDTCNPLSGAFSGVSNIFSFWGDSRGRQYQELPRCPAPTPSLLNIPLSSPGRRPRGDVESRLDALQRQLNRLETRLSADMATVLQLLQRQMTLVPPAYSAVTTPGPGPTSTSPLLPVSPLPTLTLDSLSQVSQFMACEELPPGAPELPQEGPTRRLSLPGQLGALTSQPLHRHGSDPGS
Sequence of Histamine H2 (P25021 whole entry): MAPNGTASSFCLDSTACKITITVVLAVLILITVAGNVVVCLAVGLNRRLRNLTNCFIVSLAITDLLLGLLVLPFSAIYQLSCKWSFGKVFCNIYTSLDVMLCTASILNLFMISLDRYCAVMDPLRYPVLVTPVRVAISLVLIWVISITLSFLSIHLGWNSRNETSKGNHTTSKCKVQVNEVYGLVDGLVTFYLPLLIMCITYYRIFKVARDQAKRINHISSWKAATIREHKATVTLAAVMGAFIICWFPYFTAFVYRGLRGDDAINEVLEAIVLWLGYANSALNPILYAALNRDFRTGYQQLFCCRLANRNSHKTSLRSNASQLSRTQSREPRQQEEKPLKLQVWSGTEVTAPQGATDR
Sequence of Melatonin MT1 (P48039 whole entry): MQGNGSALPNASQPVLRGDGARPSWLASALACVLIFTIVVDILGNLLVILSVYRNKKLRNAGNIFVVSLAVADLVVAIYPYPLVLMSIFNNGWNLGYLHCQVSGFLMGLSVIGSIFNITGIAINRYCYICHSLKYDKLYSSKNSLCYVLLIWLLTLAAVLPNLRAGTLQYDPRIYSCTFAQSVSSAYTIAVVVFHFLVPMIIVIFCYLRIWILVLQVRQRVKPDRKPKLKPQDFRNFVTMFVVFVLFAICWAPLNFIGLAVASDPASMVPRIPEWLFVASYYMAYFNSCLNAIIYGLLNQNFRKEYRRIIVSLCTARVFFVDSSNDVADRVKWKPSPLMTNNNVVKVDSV

| IC50 (U87MG) [nM] | Compound | Inhibitory rate (%), Glutamate, Kainate (Glutamate, Kainate) [%] | inhibition at 10 µM (Histamine H2) [%] | inhibition at 10 µM (Melatonin MT1) [%] | inhibition at 10 µM (Potassium Channel hERG) [%] | AUC(0-inf) ([1]; iv, I.V, 2 mg/kg) [ng·h/mL] | AUC(0-t) ([1]; iv, I.V, 2 mg/kg) [ng·h/mL] | clearance ([1]; iv, I.V, 2 mg/kg) [mL/min/kg] | half-life ([1]; iv, I.V, 2 mg/kg) [h] | Vd ([1]; iv, I.V, 2 mg/kg) [L/kg] | bioavailability ([1]; po) [%] | AUC(0-inf) ([1]; po, P.O, 4 mg/kg) [ng·h/mL] | AUC(0-t) ([1]; po, P.O, 4 mg/kg) [ng·h/mL] | Cmax ([1]; po, P.O, 4 mg/kg) [ng/mL] | Tmax ([1]; po, P.O, 4 mg/kg) [h] | half-life ([1]; po, P.O, 4 mg/kg) [h] |
| --- | --- | --- | --- | --- | --- | --- | --- | --- | --- | --- | --- | --- | --- | --- | --- | --- |
| – | Nc1ccc(-c2ccc3ncc4c(=O)[nH]c(=O)n(-c5cccc(C(F)(F)F)c5)c4c3n2)cn1 [Compound 5, 9-(6-aminopyridin-3-yl)-1-(3-(trifluoromethyl)phenyl)pyrimido[5,4-c][1,5]naphthyridine-2,4(1H,3H)-dione] | 35 | -2 | 17 | 2 | 9360 | 9130 | 3.5 | 4.72 | 1.26 | 14 | 2590 | 2550 | 205 | 6 | 5.77 |
| 28.3 | O=c1[nH]c(=O)n(-c2cccc(C(F)(F)F)c2)c2c1cnc1ccc(-c3cnc4[nH]ccc4c3)nc12 [Compound 30, 9-(1H-pyrrolo[2,3-b]pyridin-5-yl)-1-(3-(trifluoromethyl)phenyl)pyrimido[5,4-c][1,5]naphthyridine-2,4(1H,3H)-dione] | – | – | – | – | 3070 | 3050 | 11 | 3.89 | 1.85 | 12.8 | 785 | 654 | 54.8 | 2 | 9.42 |
